Test results as given in US7718768B2, “Biologically active peptide [sequence]” (CMS Peptides Patent Holding Company Limited, priority 2001, dated 2010).
Marks after values point to notes of the source that are not given here. No end group written: not given here.

How the values were obtained:
[1] = tested on: ascitic fluid type liver cancer H22; experiment: survival of mice with transplanted ascitic fluid type liver cancer H22; assay type: in vivo, BALB/c mice; details: for Survival index: versus saline group
Method: (§1) Intraperitoneal injection, once per day. […] Treatment of all groups with testing substance lasted for 30 days or until the animal died unless otherwise specified.
Stock H22 cells were incubated in DMEM/F12 medium supplemented with 10% fetal bovine serum, 37° C./5% CO2 for 72 hrs, then washed 3-4 times with Hank's solution at room temperature. Adjust cell concentration to 1-2×10^9 per liter with Hank's solution. 0.2 ml of the cell suspension was implanted to the abdominal cavity of several BALB/c mice for 6-8 days. The mice were killed by cervical vertebra dislocation. Ascitic fluid of the mice was collected asceptically and the cell concentration adjusted to 1×10^6 per ml with Hank's solution. 0.2 ml of the cell suspension was implanted into the abdominal cavity of healthy mice to generate the H22 carrying mouse model for ascitic fluid type liver cancer. Administration of test substance started as described in section Method 1. Survival data of the mice was recorded. If the animal survived longer than the experiment, the survival days was recorded as the duration of the experiment. Mean survival day was obtained by the Kaplan-meier method in the Survival option of the SPSS software. The survival index was calculated according to the following formula: Survival index(mean survival days in treatment group−mean survival days of control group)÷mean survival days of control group×100% 4. The Effect of Peptides on the Cellular Immunity of BALB/c Mice with Transplanted Ascitic Fluid Type Liver Cancer H22 4.1 Preparation of Spleen Cell Suspension^[1,4]

B16 melanoma cells = experiment: lung metastasis foci of inoculated B16 melanoma cells, postmortem examination; assay type: in vivo, C57BL/6 mice
Method: Intraperitoneal injection, once per day. […] Treatment of all groups with testing substance lasted for 30 days or until the animal died unless otherwise specified. […] The cell concentration was adjusted to 1×10^5 per ml with Hank's solution and 0.1 ml of the cell suspension was injected via the tail vein into the testing mice to generate the B16 melanoma bearing animal model. Treatment with test substance started as described in section Method 1. […] Postmortum Examination of the Animals was Performed. The Pathological Changes were Recorded, and the Numbers of Melanoma Lung Metastasis Foci were Counted. Results 1. The Effect of Peptide on the Cellular Phagocytosis in BALB/c Mice with Transplanted S180 Sarcoma (Method 2.1)

[2] = tested on: Duck Hepatitis B Virus (DHBV); experiment: Chongqing duck hepatitis B model, serum DHBV DNA by dot-blot hybridization; assay type: in vivo, Chongqing ducks; details: CMS001 50 μg/kg/day i.p., lamivudine 50 mg/kg/day oral
mononuclear phagocyte = experiment: phagocytosis index in mice with transplanted S180 sarcoma; assay type: in vivo, BALB/c mice
Method: as §1
Stock S180 sarcoma cells were incubated in DMEM/F12 medium supplemented with 10% fetal bovine serum, 37° C., 5% CO2 for 72 hrs, then washed 3-4 times with Hank's solution at room temperature. Adjust the cell concentration to 1-2×10^9 per liter with Hank's solution. […] The mice were killed by cervical vertebra dislocation. Vigorously growing and non-disrupted tumor masses were harvested and washed clean with sterile saline. The tissue was dispersed in saline to a homogenous cell suspension, in a ratio of 1 g tissue to 4 ml saline. The sarcoma bearing mice model was prepared with an injection of 0.2 ml cell suspension through the armpit. Administration of test substance treatment started as described in section Method 1.
2.1 The effect of peptides on the phagocytotic function of mononuclear phagocyte in mice with S180 sarcoma was analyzed by injecting mice from the tail vein with 0.1 ml/10 g body weight of Indian ink (1:5 dilution with normal saline) on the second day after the last test substance administration. At one minute and five minutes after the injection, 20 μl blood was obtained from the eye canthus with heparinised tubing. The blood was mixed with 2 ml 0.1% w/v Na2CO3 and then OD680nm obtained. The outline clear index K was calculated by the following formula: K=(lgA1−lgA2)÷(t2−t1)
After the phagocytosis index study, the mice were killed by cervical vertebra dislocation. The liver, spleen, and cancer tissue were dissected, blotted dry, and weighed.
1. The Phagocytosis Index α was Calculated as Below: α=(^3√K)×(W÷WLS)

L1210 leukemia = experiment: survival of mice with transplanted L1210 leukemia; assay type: in vivo, DBA/2 mice; details: for Survival index: versus saline group
Method: as §1
Stock L1210 cells were incubated in DMEM/F12 medium supplemented with 10% fetal bovine serum, 37° C./5% CO2 for 72 hrs, then washed 3-4 times with Hank's solution, and adjusted to 1×10^5 cells per liter. 0.1 ml of the cell suspension was implanted into the abdominal cavity of several healthy DBA mice for 6-8 days. The mice were then killed by cervical vertebra dislocation and their ascitic fluid collected aseptically. The cell concentration of the collected ascitic fluid was adjusted to 1×10^5 per ml with Hank's solution. 0.1 ml of the cell suspension was implanted into each of the testing animal and the survival data of the animals recorded. Treatment started in the testing animals as described in section Method 1. Mean survival day was obtained by the Kaplan-meier method in the Survival option of the SPSS software. If the animal survived longer than the experiment, the survival days was entered as the duration of the experiment. The survival index was calculated according to the following formula: Survival index=(mean survival days of treatment group−mean survival days of control group)÷mean survival days of control group 6. The Effect of Peptides on the Humoral Immunity of C57BL/6 Mice Bearing Transplanted B16 Melanoma, and that on the Metastatic Potential of the Inoculated Melanoma Cells

[3] = 3 × 10^5 IU/kg i.p. once per day

Phe Glu Glu Glu (FEEE; listed as Sus scrofa) [CMS032]
Survival days ([1]; 0.5 μg/kg i.p. once per day): 42.8 ± 12.2*^^&$ days
Survival index ([1]; 0.5 μg/kg i.p. once per day): 63.3%

KAVGHLDDLPGAL [CMS008]
Survival days ([1]; 5 μg/kg i.p. once per day): 50.7 ± 20.9*^& days
Survival index ([1]; 5 μg/kg i.p. once per day): 67.8%
B16 metastatic foci in the lung, postmortem examination (B16 melanoma cells; 0.5 μg/kg/day i.p.): did not show any sign of existence of B16 metastatic foci in the lung
B16 metastatic foci in the lung, postmortem examination (B16 melanoma cells; 5 μg/kg/day i.p.): did not show any sign of existence of B16 metastatic foci in the lung
B16 metastatic foci in the lung, postmortem examination (B16 melanoma cells; 50 μg/kg/day i.p.): did not show any sign of existence of B16 metastatic foci in the lung

PTTKTYFPHF [CMS001]
Serum DHBV DNA level ([2]; Day 0 (before treatment), Mean ± Standard Deviation): 21 ± 18 10^3 units
Serum DHBV DNA level ([2]; Day 7 of treatment): 11 ± 13 10^3 units
Serum DHBV DNA level ([2]; Day 14 of treatment): 20 ± 18 10^3 units
Serum DHBV DNA level ([2]; Day 21 of treatment): 14 ± 14 10^3 units
Serum DHBV DNA level ([2]; Day 28 (end of 4 weeks treatment)): 5 ± 3* 10^3 units
Serum DHBV DNA level ([2]; Day 35 (one week after termination of treatment)): 18 ± 16 10^3 units
Phagocytosis index (mononuclear phagocyte; 5 μg/kg i.p. once per day): 6.67 ± 0.43*^
Phagocytosis index (mononuclear phagocyte; 50 μg/kg i.p. once per day): 6.24 ± 0.33*^

Phe Val Asn Asp (FVND; listed as Sus scrofa) [CMS035]
Survival days (L1210 leukemia; 0.5 μg/kg i.p. once per day): 29.3 ± 15.4 days
Survival index (L1210 leukemia; 0.5 μg/kg i.p. once per day): 76.1%

IGMESAGIHETTY [CMS016]
B16 metastatic foci in the lung, postmortem examination (B16 melanoma cells; 5 μg/kg/day i.p.): did not show any sign of existence of B16 metastatic foci in the lung
B16 metastatic foci in the lung, postmortem examination (B16 melanoma cells; 500 μg/kg/day i.p.): did not show any sign of existence of B16 metastatic foci in the lung

Tyr Ser Leu (YSL; listed as Sus scrofa) [CMS024]
Survival days ([1]; 0.5 μg/kg i.p. once per day): 46.4 ± 14.8*^^&$ days
Survival index ([1]; 0.5 μg/kg i.p. once per day): 76.9%
postmortem examination of the long-surviving mice ([1]; 0.5 μg/kg/day): did not show sign of tumor establishment
share of mice surviving longer than 90 days ([1]; 0.5 μg/kg/day, n=6, two months after the experiment ended): more than 30%
Survival days ([1]; 5 μg/kg i.p. once per day): 40.6 ± 14.6*^&$ days
Survival index ([1]; 5 μg/kg i.p. once per day): 54.8%
Survival days ([1]; 50 μg/kg i.p. once per day): 36.3 ± 12.7*^&$ days
Survival index ([1]; 50 μg/kg i.p. once per day): 38.4%

Pro Glu Asn Phe (PENF; listed as Sus scrofa) [CMS034]
Phagocytosis index (mononuclear phagocyte; 0.5 μg/kg i.p. once per day): 6.35 ± 1.02
Phagocytosis index (mononuclear phagocyte; 5 μg/kg i.p. once per day): 6.20 ± 0.44*^

VGMGQKDSY [CMS019]
Survival days (L1210 leukemia; 0.5 μg/kg i.p. once per day): 21.1 ± 5.8 days
Survival index (L1210 leukemia; 0.5 μg/kg i.p. once per day): 26.8%

RVAPEEHPTL [CMS011]
Survival days ([1]; 5 μg/kg i.p. once per day): 36.4 ± 22.2*^& days
Survival index ([1]; 5 μg/kg i.p. once per day): 60.2%

B1: IFN-γ: recombinant mouse interferon-γ, Beijing Biotech Inc.; positive control immunostimulant (protein, UniProt P01580 23-155, looked up)
Interferon gamma: HGTVIESLESLNNYFNSSGIDVEEKSLFLDIWRNWQKDGDMKILQSQIISFYLRLFEVLKDNQAISNNISVIESHLITTFFSNSKAKKDAFMSIAKFEVNNPQVQRQAFNELIRVVHQLLPESSLRKRKRSRC
Phagocytosis index (mononuclear phagocyte; [3]): 5.45 ± 0.71
Survival days [1, 3]: 27.8 ± 7.5 days
Survival index [1, 3]: 6.1%
Survival days (L1210 leukemia; [3]): 15.6 ± 2.2 days
